Some test systems named below: NCI-H522; SK-MEL-2; SN12C; UACC-257; A498; SF-295; NCI-H23; RPMI-8226; OVCAR-4; LOX IMVI; K562; OVCAR-3; EKVX; SK-MEL-28; SF-268; OVCAR-8; RXF 393; KM12; SW-620; HOP-92.
Common to all, as to experiment: growth of human tumour cells (NCI), 48 h

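Where inhibition never reached the appropriate level, the endpoint shown equals the highest concentration tested. Otherwise, values were interpolated linearly from a five-concentration, 48-hour dose response in 96-well plates. The concentration for 50% growth inhibition is given as GI50.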 Calls of active or inactive are those of the source. Cut-off read from the data, not from the text of the source: active = GI50 up to about 1.1 µM and inactive = higher. Some results are limits rather than exact numbers.

Regarding `O=[N+]([O-])c1cccc2c1[nH]c1c(-c3ccccc3)nccc12`, the GI50 in the assay with NCI-H522 is 0.849 µM (active); in the assay with SK-MEL-2 it was 1.07 µM (active); with SN12C, 2.7 µM (inactive); in the assay on UACC-257, 1.94 µM (inactive); in the assay on A498, 3.72 µM (inactive); in the assay with SF-295 it was 3.08 µM (inactive). The GI50 was 2.07 µM (inactive) with NCI-H23; 1.46 µM (inactive) in the assay on RPMI-8226; 2.02 µM (inactive) with OVCAR-4; 2.73 µM (inactive) in the assay on LOX IMVI; 1.99 µM (inactive) with K562; 1.36 µM (inactive) with OVCAR-3. The GI50 in the assay on EKVX is 3.21 µM (inactive); with SK-MEL-28, 3.84 µM (inactive); in the assay on SF-268 it was 4.04 µM (inactive); in the assay with OVCAR-8, 3.52 µM (inactive); in the assay on RXF 393, 2.54 µM (inactive); in the assay on KM12, 3.03 µM (inactive). In addition, the GI50 in the assay on SW-620 is 3.41 µM (inactive); in the assay with HOP-92, 0.622 µM (active).

Take `O=C1C2CN(Cc3ccccc3)CC1CN(CC1CC1)C2`: the GI50 in the assay on NCI-H522, with SK-MEL-2, in the assay on SN12C, in the assay with UACC-257, with A498 and with SF-295 was > 100 µM (inactive) throughout. Further, the GI50 in the assay with NCI-H23, in the assay on RPMI-8226, in the assay on OVCAR-4, in the assay on LOX IMVI, in the assay on K562 and with OVCAR-3 was > 100 µM (inactive) throughout. Besides, the GI50 with EKVX, in the assay with SK-MEL-28, in the assay on SF-268, in the assay with OVCAR-8, in the assay with RXF 393 and in the assay on KM12 was > 100 µM (inactive) throughout. Further, the GI50 in the assay on SW-620 and in the assay on HOP-92 was > 100 µM (inactive) in each case.

`O=C(O)CCCNS(=O)(=O)c1ccc2ccccc2c1`: the GI50 in the assay on NCI-H522, with SK-MEL-2, in the assay with SN12C, in the assay on UACC-257, with A498 and in the assay with SF-295 was > 100 µM (inactive) in each case. Also, the GI50 in the assay with NCI-H23, with RPMI-8226, in the assay on OVCAR-4, in the assay on LOX IMVI, in the assay on K562 and in the assay on OVCAR-3 was > 100 µM (inactive) each time. Further, the GI50 with EKVX, in the assay on SK-MEL-28, in the assay with SF-268, in the assay with OVCAR-8, in the assay on RXF 393 and with KM12 was > 100 µM (inactive) each time. The GI50 is > 100 µM (inactive) in the assay with SW-620 and 97.7 µM (inactive) in the assay on HOP-92.

Take `CN(CCO)/N=N/c1n[nH]cc1C(N)=O`: the GI50 with NCI-H522, with SK-MEL-2, in the assay on SN12C, in the assay on UACC-257, with A498 and in the assay on SF-295 was > 100 µM (inactive) each time. In addition, the GI50 in the assay with NCI-H23, in the assay on RPMI-8226, in the assay with OVCAR-4, in the assay with LOX IMVI, with K562 and in the assay on OVCAR-3 was > 100 µM (inactive) each time. Further, the GI50 with EKVX, in the assay on SK-MEL-28, in the assay on SF-268, in the assay with OVCAR-8, with RXF 393 and with KM12 was > 100 µM (inactive) throughout. In addition, the GI50 with SW-620 and in the assay with HOP-92 was > 100 µM (inactive) throughout.

For `Cc1cc(C)c2c(=N)c3ccccc3n(CCCCCCn3c4ccccc4c(=N)c4c(C)cc(C)nc43)c2n1`, the GI50 in the assay on NCI-H522 is 1.39 µM (inactive); in the assay on SK-MEL-2, 1.66 µM (inactive); in the assay with SN12C, 1.5 µM (inactive); in the assay with UACC-257, 1.64 µM (inactive); with A498, 1.73 µM (inactive); in the assay on SF-295, 1.36 µM (inactive). Further, the GI50 is 1.4 µM (inactive) in the assay on NCI-H23; 0.305 µM (active) in the assay with RPMI-8226; 1.43 µM (inactive) with OVCAR-4; 0.182 µM (active) in the assay with LOX IMVI; 0.3 µM (active) in the assay on K562; 1.66 µM (inactive) in the assay on OVCAR-3. Moreover, the GI50 was 1.77 µM (inactive) with EKVX; 1.28 µM (inactive) in the assay with SK-MEL-28; 1.56 µM (inactive) in the assay with SF-268; 1.68 µM (inactive) in the assay on OVCAR-8; 1.25 µM (inactive) in the assay on RXF 393; 0.346 µM (active) in the assay with KM12. Further, the figures for the GI50 with SW-620 and in the assay with HOP-92 were 0.209 µM (active) and 1.58 µM (inactive), respectively.

On to `COc1ccc(CC(N)=O)cc1OC`, for which the GI50 in the assay with NCI-H522 was > 1250 µM (inactive); in the assay on SK-MEL-2, > 1250 µM (inactive); in the assay with SN12C, > 1250 µM (inactive); in the assay on UACC-257, 703 µM (inactive); in the assay with A498, > 1250 µM (inactive); in the assay on SF-295 it was > 1250 µM (inactive). In addition, the GI50 in the assay with NCI-H23, with RPMI-8226, in the assay with OVCAR-4, with LOX IMVI, with K562 and in the assay on OVCAR-3 was > 1250 µM (inactive) each time. For the same compound, the GI50 with EKVX is > 1250 µM (inactive); with SK-MEL-28, > 1250 µM (inactive); in the assay with SF-268, > 1250 µM (inactive); with OVCAR-8, 198 µM (inactive); with RXF 393, > 1250 µM (inactive); with KM12, > 1250 µM (inactive). Also, the GI50 in the assay on SW-620 was > 1250 µM (inactive); with HOP-92 it was 753 µM (inactive).

In the case of `O=C(CC1OC(O)C(Cl)=C1Cl)c1cccnc1` (stereo not given), the GI50 with NCI-H522, in the assay with SN12C, in the assay on UACC-257, with A498, in the assay with SF-295 and in the assay on NCI-H23 was > 100 µM (inactive) throughout. The GI50 in the assay on RPMI-8226 is > 34.7 µM (inactive); in the assay on OVCAR-4, > 100 µM (inactive); in the assay on LOX IMVI, > 100 µM (inactive); in the assay with K562, > 100 µM (inactive); in the assay on OVCAR-3 it was > 100 µM (inactive); with EKVX it was > 100 µM (inactive). Further, the GI50 with SK-MEL-28 was > 42.7 µM (inactive); in the assay on SF-268, > 68.4 µM (inactive); with OVCAR-8, > 100 µM (inactive); in the assay with RXF 393, > 100 µM (inactive); with KM12 it was > 100 µM (inactive); in the assay on HOP-92, > 100 µM (inactive).

On to `OCC#CCNCl`, for which the GI50 in the assay on NCI-H522 was > 100 µM (inactive); with SK-MEL-2 it was > 100 µM (inactive); with SN12C, > 100 µM (inactive); in the assay with UACC-257, > 73.6 µM (inactive); in the assay with A498 it was > 100 µM (inactive); in the assay on SF-295, > 100 µM (inactive). For the same compound, the GI50 with NCI-H23, in the assay on RPMI-8226, in the assay on OVCAR-4, in the assay on LOX IMVI, in the assay with K562 and with OVCAR-3 was > 100 µM (inactive) throughout. For the same compound, the GI50 in the assay on EKVX, in the assay with SK-MEL-28, with SF-268, with OVCAR-8, in the assay on RXF 393 and in the assay with KM12 was > 100 µM (inactive) in each case. The GI50 in the assay with SW-620 and in the assay on HOP-92 was > 100 µM (inactive) each time.

For the compound `COC(=O)C(Cc1cc(OC)c(OC)c(OC)c1)(NC(=O)c1ccccc1)P(=O)(OC)OC` (stereo not given), the GI50 in the assay with NCI-H522, with SK-MEL-2, with SN12C, with UACC-257, in the assay on A498 and in the assay with SF-295 was > 100 µM (inactive) in each case. Also, the GI50 with NCI-H23, in the assay on RPMI-8226, in the assay on OVCAR-4, with LOX IMVI, in the assay on K562 and in the assay on EKVX was > 100 µM (inactive) each time. Moreover, the GI50 with SK-MEL-28, with SF-268, in the assay on OVCAR-8, in the assay on RXF 393, in the assay with KM12 and with SW-620 was > 100 µM (inactive) throughout. The GI50 in the assay with HOP-92 was > 100 µM (inactive).

For the compound `O=C(O)CNc1ccc(Cl)c(Cl)c1`, the GI50 with NCI-H522 was 16.3 µM (inactive); in the assay on SN12C, 32.7 µM (inactive); with UACC-257 it was 26.7 µM (inactive); in the assay with A498, 30.4 µM (inactive); in the assay on SF-295, 24.6 µM (inactive); in the assay on NCI-H23, 34.4 µM (inactive). For the same compound, the GI50 is 21.9 µM (inactive) in the assay on RPMI-8226; 31.6 µM (inactive) with OVCAR-4; 35.2 µM (inactive) in the assay on LOX IMVI; 25.1 µM (inactive) with K562; 25.9 µM (inactive) in the assay with OVCAR-3; 23.1 µM (inactive) in the assay on EKVX. The GI50 in the assay on SF-268 is 28.9 µM (inactive); with OVCAR-8, 29 µM (inactive); with RXF 393, 35.3 µM (inactive); in the assay with KM12, 19.1 µM (inactive); in the assay on SW-620, 23.9 µM (inactive); in the assay on HOP-92 it was 15.8 µM (inactive).

The record behind these values is ChEMBL document CHEMBL1201862, “PubChem BioAssay data set” (2004).
